In ChEMBL document CHEMBL2046268 (Eur J Med Chem, 2012):

Tests used:
[1] = test system: Vero; assay: Selectivity index, ratio of IC50 for african green monkey Vero cells to IC50 for human MCF7 cells after 48 hrs
[2] = test system: HeLa; assay: Cytotoxicity against human HeLa cells assessed as cell viability after 48 hrs by MTT assay; assay type: functional, cell-based
[3] = test system: A549; assay: Cytotoxicity against human A549 cells assessed as cell viability after 48 hrs by MTT assay; assay type: functional, cell-based; conditions: A549, 48 h
[4] = test system: HeLa; assay: Cytotoxicity against human HeLa cells assessed as cell viability after 72 hrs by MTT assay; assay type: functional, cell-based
[5] = test system: A549; assay: Cytotoxicity against human A549 cells assessed as cell viability after 72 hrs by MTT assay; assay type: functional, cell-based; conditions: A549, 72 h
[6] = test system: MCF7; assay: Cytotoxicity against human MCF7 cells assessed as cell viability after 48 hrs by MTT assay; assay type: functional, cell-based; conditions: MCF7, 48 h
[7] = test system: MCF7; assay: Cytotoxicity against human MCF7 cells assessed as cell viability after 72 hrs by MTT assay; assay type: functional, cell-based; conditions: MCF7, 72 h
[8] = test system: Vero; assay: Cytotoxicity against african green monkey Vero cells assessed as cell viability after 48 hrs by MTT assay; assay type: cell-based; conditions: Chlorocebus sabaeus
[9] = test system: Vero; assay: Cytotoxicity against african green monkey Vero cells assessed as cell viability after 72 hrs by MTT assay; assay type: cell-based; conditions: Chlorocebus sabaeus

| SMILES | Ratio IC50 [1] | IC50 [2] [µM] | IC50 [3] [µM] | IC50 [4] [µM] | IC50 [5] [µM] | IC50 [6] [µM] | IC50 [7] [µM] | IC50 [8] [µM] | IC50 [9] [µM] |
| --- | --- | --- | --- | --- | --- | --- | --- | --- | --- |
| Sc1ncnc2nc[nH]c12 [MERCAPTOPURINE ANHYDROUS] | 48.3 | – | – | – | – | – | – | – | – |
| CC1=C(CO)C(=O)O[C@@H]([C@@H](C)[C@H]2CC[C@H]3[C@@H]4C[C@@H](O)[C@]5(C=O)C=CC(=O)[C@]5(C)[C@H]4CC[C@]23C)C1 | – | > 40 | > 40 | > 40 | > 40 | > 40 | > 40 | > 40 | > 40 |
| CC1=C(CO)C(=O)O[C@@H](/C(C)=C2\[C@@H](O)C[C@H]3[C@@H]4C[C@H]5O[C@]56[C@@H](O)C=CC(=O)[C@]6(C)[C@H]4CC[C@]23C)C1 | <1 | 40 | > 40 | 31.1 | > 40 | 27.7 | 6 | > 40 | > 40 |
| CC1=C(COC(C)(C)OC=O)C(=O)O[C@@H]([C@@H](C)[C@H]2CC[C@H]3[C@@H]4C[C@H]5O[C@]56[C@@H](O)C=CC(=O)[C@]6(C)[C@H]4CC[C@]23C)C1 | 1 | > 40 | > 40 | 37.3 | > 40 | 26.9 | 18.3 | 27.8 | 18.5 |
| CC1=C(CO)C(=O)O[C@@H]([C@@H](C)[C@@]2(O)CC[C@H]3[C@@H]4C[C@H]5O[C@]56[C@@H](O)C=CC(=O)[C@]6(C)[C@H]4CC[C@@]32C)C1 | 1.8 | 17.7 | > 40 | 19.8 | 31.7 | 16.3 | 10.3 | 28.8 | 21.8 |
| CC1=C(CO)C(=O)O[C@@H]([C@@H](C)[C@H]2CC[C@H]3[C@@H]4C[C@H](O)[C@]5(O)[C@@H](O)C=CC(=O)[C@]5(C)[C@H]4CC[C@]23C)C1 | 1 | > 40 | > 40 | 31.4 | 36.4 | 38.4 | 36.2 | 40 | 26.9 |
| CC1=C(CO)C(=O)O[C@@H]([C@@H](C)[C@H]2CC[C@H]3[C@@H]4C[C@@H](O)[C@@]5(O)[C@@H](O)[C@@H](O)CC(=O)[C@]5(C)[C@H]4CC[C@]23C)C1 | – | > 40 | > 40 | > 40 | > 40 | > 40 | > 40 | > 40 | > 40 |
| CC(=O)OCC1=C(C)C[C@H]([C@@H](C)[C@H]2CC[C@H]3[C@@H]4C[C@H]5O[C@]56[C@@H](O)[C@@H](O)CC(=O)[C@]6(C)[C@H]4CC[C@]23C)OC1=O | <1 | 8.9 | 18.4 | 8.3 | 21.3 | 9.2 | 7.1 | 8.6 | 4.9 |
